Common to all, as to assay type: cell-based
One experiment concerns the target human TLR9 (Homo sapiens (Human), UniProt Q9NR96). As to the kind of experiment: TLR9 inhibition reporter assay (HEK-Blue, SEAP). As to conditions: HEK-Blue cells overexpressing human TLR9, ODN2006 5 nM stimulation. The gist of the method: (§1)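 Percent inhibition of agonist-induced SEAP secretion was scored against DMSO-only and reference-inhibitor controls. Stimulation lasted 22 h at 37 °C following 30 min compound pre-exposure (0.05 nM–50 μM); ligands were gardiquimod 7.5 μM, R848 15.9 μM and ODN2006 5 nM for TLR7, 8 and 9.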
On the technique in general: A reporter such as luciferase makes a cellular process visible.

In another experiment the target is human TLR8 (Homo sapiens (Human), UniProt Q9NR97). As to the kind of experiment: TLR8 inhibition reporter assay (HEK-Blue, SEAP). Particulars: HEK-Blue cells overexpressing human TLR8, R848 15.9 μM stimulation. The gist of the method:
as §1

A further experiment concerns the target human TLR7 (Homo sapiens (Human), UniProt Q9NYK1). Nature of the experiment: TLR7 inhibition reporter assay (HEK-Blue, SEAP). Particulars: HEK-Blue cells overexpressing human TLR7, gardiquimod 7.5 μM stimulation. The gist of the method:
as §1

This note sets out measurements from patent US11420958B2, “Aryl and heteroaryl substituted indole compounds” (BRISTOL-MYERS SQUIBB COMPANY, priority 2017, dated 2022).

Sequence of human TLR9 (Q9NR96 26-1032): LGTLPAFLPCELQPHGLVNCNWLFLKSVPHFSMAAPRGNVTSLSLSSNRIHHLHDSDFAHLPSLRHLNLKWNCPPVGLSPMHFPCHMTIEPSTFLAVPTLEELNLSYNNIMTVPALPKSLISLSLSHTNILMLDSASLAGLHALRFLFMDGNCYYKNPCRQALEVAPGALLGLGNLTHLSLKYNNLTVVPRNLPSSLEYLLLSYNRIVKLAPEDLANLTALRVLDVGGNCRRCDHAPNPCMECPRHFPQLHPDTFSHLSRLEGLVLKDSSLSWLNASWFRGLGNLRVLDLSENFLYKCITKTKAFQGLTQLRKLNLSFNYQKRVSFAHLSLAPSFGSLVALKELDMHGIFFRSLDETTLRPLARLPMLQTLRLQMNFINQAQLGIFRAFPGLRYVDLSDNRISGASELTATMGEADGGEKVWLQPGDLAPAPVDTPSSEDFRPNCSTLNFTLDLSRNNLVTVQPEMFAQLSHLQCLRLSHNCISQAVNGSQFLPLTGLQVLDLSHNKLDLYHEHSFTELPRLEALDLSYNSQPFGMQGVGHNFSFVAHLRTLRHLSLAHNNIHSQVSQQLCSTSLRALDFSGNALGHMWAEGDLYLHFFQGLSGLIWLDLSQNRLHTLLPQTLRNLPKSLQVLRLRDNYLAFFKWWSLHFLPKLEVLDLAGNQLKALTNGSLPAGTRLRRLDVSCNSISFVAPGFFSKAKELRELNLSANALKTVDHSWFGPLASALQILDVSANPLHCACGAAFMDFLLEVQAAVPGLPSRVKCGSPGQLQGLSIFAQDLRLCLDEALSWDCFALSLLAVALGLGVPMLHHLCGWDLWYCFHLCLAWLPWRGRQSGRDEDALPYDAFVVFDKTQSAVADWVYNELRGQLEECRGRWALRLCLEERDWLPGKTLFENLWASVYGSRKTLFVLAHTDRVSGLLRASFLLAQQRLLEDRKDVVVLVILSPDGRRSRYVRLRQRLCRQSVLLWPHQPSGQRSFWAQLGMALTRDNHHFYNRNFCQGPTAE
Sequence of human TLR7 (Q9NYK1 27-1049): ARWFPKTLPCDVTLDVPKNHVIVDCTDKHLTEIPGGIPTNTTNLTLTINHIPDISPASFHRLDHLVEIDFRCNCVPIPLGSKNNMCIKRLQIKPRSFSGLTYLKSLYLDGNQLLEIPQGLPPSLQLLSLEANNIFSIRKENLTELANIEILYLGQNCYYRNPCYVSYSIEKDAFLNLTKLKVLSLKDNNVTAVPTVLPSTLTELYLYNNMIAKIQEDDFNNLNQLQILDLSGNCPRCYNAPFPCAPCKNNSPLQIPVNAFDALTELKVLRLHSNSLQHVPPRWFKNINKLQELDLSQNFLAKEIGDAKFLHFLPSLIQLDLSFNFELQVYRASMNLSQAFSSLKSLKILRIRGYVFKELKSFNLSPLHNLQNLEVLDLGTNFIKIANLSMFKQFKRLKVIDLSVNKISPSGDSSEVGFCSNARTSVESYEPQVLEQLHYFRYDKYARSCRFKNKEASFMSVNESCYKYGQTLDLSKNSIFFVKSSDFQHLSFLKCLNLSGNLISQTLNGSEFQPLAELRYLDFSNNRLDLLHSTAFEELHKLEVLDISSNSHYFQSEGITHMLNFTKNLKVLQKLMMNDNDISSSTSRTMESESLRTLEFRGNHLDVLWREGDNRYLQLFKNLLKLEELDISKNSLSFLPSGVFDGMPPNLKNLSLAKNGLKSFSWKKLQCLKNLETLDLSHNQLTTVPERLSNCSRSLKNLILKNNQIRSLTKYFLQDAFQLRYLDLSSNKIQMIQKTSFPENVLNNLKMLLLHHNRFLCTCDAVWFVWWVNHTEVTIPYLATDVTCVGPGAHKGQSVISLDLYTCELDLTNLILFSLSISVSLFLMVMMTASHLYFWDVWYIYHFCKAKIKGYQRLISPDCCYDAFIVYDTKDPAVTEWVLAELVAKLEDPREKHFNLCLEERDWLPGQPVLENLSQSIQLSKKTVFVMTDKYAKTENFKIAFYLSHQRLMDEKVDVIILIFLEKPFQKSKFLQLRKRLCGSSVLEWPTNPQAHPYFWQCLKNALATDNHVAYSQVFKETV
Sequence of human TLR8 (Q9NR97 27-1041): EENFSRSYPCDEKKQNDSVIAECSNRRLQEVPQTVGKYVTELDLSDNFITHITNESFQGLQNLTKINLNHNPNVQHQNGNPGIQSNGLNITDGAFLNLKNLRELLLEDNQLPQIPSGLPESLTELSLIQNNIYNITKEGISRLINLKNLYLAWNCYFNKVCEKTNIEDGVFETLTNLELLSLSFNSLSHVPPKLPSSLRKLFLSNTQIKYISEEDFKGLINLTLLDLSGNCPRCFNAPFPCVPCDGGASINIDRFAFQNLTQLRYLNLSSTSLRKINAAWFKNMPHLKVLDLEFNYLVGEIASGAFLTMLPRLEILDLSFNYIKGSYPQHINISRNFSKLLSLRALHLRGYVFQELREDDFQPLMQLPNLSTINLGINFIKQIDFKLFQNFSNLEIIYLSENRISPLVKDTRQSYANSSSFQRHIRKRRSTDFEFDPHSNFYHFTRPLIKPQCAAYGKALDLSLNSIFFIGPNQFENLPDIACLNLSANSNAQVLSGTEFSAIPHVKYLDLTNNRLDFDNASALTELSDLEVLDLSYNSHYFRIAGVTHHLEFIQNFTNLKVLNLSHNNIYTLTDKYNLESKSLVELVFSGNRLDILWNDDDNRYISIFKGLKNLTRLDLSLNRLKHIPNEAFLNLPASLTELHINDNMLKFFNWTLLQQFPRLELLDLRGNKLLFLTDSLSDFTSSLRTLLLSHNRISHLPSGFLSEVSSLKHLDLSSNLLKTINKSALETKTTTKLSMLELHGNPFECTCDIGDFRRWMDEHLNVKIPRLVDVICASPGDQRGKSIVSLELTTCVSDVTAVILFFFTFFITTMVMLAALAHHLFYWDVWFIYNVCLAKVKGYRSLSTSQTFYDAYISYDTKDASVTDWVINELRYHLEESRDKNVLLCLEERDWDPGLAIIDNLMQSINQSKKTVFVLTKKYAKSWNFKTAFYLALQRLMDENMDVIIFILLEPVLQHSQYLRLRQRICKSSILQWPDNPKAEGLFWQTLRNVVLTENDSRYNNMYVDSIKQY

The term IC50 denotes the concentration needed to halve the response being measured. High values mean a need for much substance, low ones inhibition by little substance. Regarding `Cc1cc(-c2[nH]c3ccc(-c4nnc([C@@H]5CCCN5)o4)cc3c2C(C)C)ccn1` [Example 261, (S)-2-(3-isopropyl-2-(2-methylpyridin-4-yl)-1H-indol-5-yl)-5-(pyrrolidin-2-yl)-1,3,4-oxadiazole], the concentration for half-maximal inhibition (IC50) against human TLR9 was found to be 6280 nM; on human TLR8 it was 4.5 nM; at human TLR7, 162 nM.
Take `Cc1cc(-c2[nH]c3ccc(-c4nnc(CCc5cccnc5)o4)cc3c2C(C)C)ccn1` [Example 262, 2-(3-isopropyl-2-(2-methylpyridin-4-yl)-1H-indol-5-yl)-5-(2-(pyridin-3-yl)ethyl)-1,3,4-oxadiazole]: the IC50 against human TLR9 was determined as 5890 nM; on human TLR8, 60 nM; against human TLR7, 286 nM.
For `Cc1cc(-c2[nH]c3ccc(-c4nnc(C(C)CN)o4)cc3c2C(C)C)ccn1` (stereo not drawn) [Example 263, 2-(5-(3-isopropyl-2-(2-methylpyridin-4-yl)-1H-indol-5-yl)-1,3,4-oxadiazol-2-yl)propan-1-amine], the IC50 against human TLR9 came to 869 nM; against human TLR8, 3.2 nM; at human TLR7, 50 nM.
In the case of `Cc1cc(-c2[nH]c3ccc(-c4nnc(CCCCN)o4)cc3c2C(C)C)ccn1` [Example 264, 4-(5-(3-isopropyl-2-(2-methylpyridin-4-yl)-1H-indol-5-yl)-1,3,4-oxadiazol-2-yl)butan-1-amine], the IC50 was 7270 nM against human TLR9, 36 nM against human TLR8 and 251 nM against human TLR7.
`Cc1cc(-c2[nH]c3ccc(-c4nnc(CC(C)(C)N)o4)cc3c2C(C)C)ccn1` [Example 265, 1-(5-(3-isopropyl-2-(2-methylpyridin-4-yl)-1H-indol-5-yl)-1,3,4-oxadiazol-2-yl)-2-methylpropan-2-amine]: the IC50 against human TLR9 was 561 nM; on human TLR8 it was 3.3 nM; against human TLR7, 21 nM.
The like results for `Cc1cc(-c2[nH]c3ccc(-c4nnc([C@@H]5CCCC[C@@H]5N)o4)cc3c2C(C)C)ccn1` [Example 266, (1S,2R)-2-(5-(3-isopropyl-2-(2-methylpyridin-4-yl)-1H-indol-5-yl)-1,3,4-oxadiazol-2-yl)cyclohexan-1-amine] were, in that order, 781 nM, 0.5 nM and 38 nM.
Consider `Cc1cc(-c2[nH]c3ccc(-c4nnc([C@@H]5CCC[C@@H]5N)o4)cc3c2C(C)C)ccn1` [Example 267, (1S,2R)-2-(5-(3-isopropyl-2-(2-methylpyridin-4-yl)-1H-indol-5-yl)-1,3,4-oxadiazol-2-yl)cyclopentan-1-amine], for which the IC50 at human TLR9 stood at 752 nM; against human TLR8, 2.4 nM; against human TLR7, 30 nM.
Turning to `Cc1cc(-c2[nH]c3ccc(-c4nnc([C@@H](N)C5CC5)o4)cc3c2C(C)C)ccn1` [Example 268, (S)-cyclopropyl(5-(3-isopropyl-2-(2-methylpyridin-4-yl)-1H-indol-5-yl)-1,3,4-oxadiazol-2-yl)methanamine], the half-inhibitory concentration (IC50) was determined as 33800 nM against human TLR9, 2.8 nM at human TLR8 and 214 nM against human TLR7.
On to `Cc1cc(-c2[nH]c3ccc(-c4ccnc(N5CCN(C)CC5)c4)cc3c2C(C)C)ccn1` [Example 269, 3-isopropyl-5-(2-(4-methylpiperazin-1-yl)pyridin-4-yl)-2-(2-methylpyridin-4-yl)-1H-indole], for which the concentration for half-maximal inhibition (IC50) at human TLR9 was determined as 824 nM; against human TLR8 it was 5.5 nM; against human TLR7, 74 nM.
Consider `Cc1cc(-c2[nH]c3ccc(-c4nnc(CCN(C)C)o4)cc3c2C(C)C)cc(C)n1` [Example 270, 2-(5-(2-(2,6-dimethylpyridin-4-yl)-3-isopropyl-1H-indol-5-yl)-1,3,4-oxadiazol-2-yl)-N,N-dimethylethan-1-amine], for which the half-inhibitory concentration (IC50) is 298 nM at human TLR9, 1 nM on human TLR8 and 10 nM against human TLR7.
As to `Cc1cc(-c2[nH]c3ccc(-c4nnc(CCCN(C)C)o4)cc3c2C(C)C)cc(C)n1` [Example 271, 3-(5-(2-(2,6-dimethylpyridin-4-yl)-3-isopropyl-1H-indol-5-yl)-1,3,4-oxadiazol-2-yl)-N,N-dimethylpropan-1-amine], the values for the 50% inhibitory concentration (IC50) against human TLR9, against human TLR8 and on human TLR7 were 281 nM, 1.9 nM and 6.3 nM, respectively.
With `Cc1cc(-c2[nH]c3ccc(-c4ccnc(C5CCN(C(C)C)CC5)c4)cc3c2C(C)C)ccn1` [Example 272, 3-isopropyl-5-(2-(1-isopropylpiperidin-4-yl)pyridin-4-yl)-2-(2-methylpyridin-4-yl)-1H-indole], the IC50 at human TLR9 was 380 nM; on human TLR8, 9 nM; against human TLR7 it was 24 nM.
On to `Cc1cc(-c2[nH]c3ccc(-c4ccnc(N5CCNCC5)c4)cc3c2C(C)C)ccn1` [Example 273, 3-isopropyl-2-(2-methylpyridin-4-yl)-5-(2-(piperazin-1-yl)pyridin-4-yl)-1H-indole], for which the half-inhibitory concentration (IC50) at human TLR9 amounted to 790 nM; against human TLR8 it was 5.8 nM; on human TLR7, 45 nM.
The like results for `Cc1cc(-c2[nH]c3ccc(-c4nc(C(=O)NCCN5CCCCC5)co4)cc3c2C(C)C)cc(C)n1` [Example 274, 2-(2-(2,6-dimethylpyridin-4-yl)-3-isopropyl-1H-indol-5-yl)-N-(2-(piperidin-1-yl)ethyl)oxazole-4-carboxamide] were, in that order, 602 nM, 6.2 nM and 22 nM.
Consider `Cc1cc(-c2[nH]c3ccc(-c4nc(C(=O)NCCCN5CCCCC5)co4)cc3c2C(C)C)cc(C)n1` [Example 275, 2-(2-(2,6-dimethylpyridin-4-yl)-3-isopropyl-1H-indol-5-yl)-N-(3-(piperidin-1-yl)propyl)oxazole-4-carboxamide], for which the IC50 at human TLR9 turned out to be 601 nM; at human TLR8 it was 12 nM; on human TLR7 it was 18 nM.
Turning to `Cc1cc(-c2[nH]c3ccc(-c4nc(C(=O)NCC5CCNC5)co4)cc3c2C(C)C)cc(C)n1` (stereo not drawn) [Example 276, 2-(2-(2,6-dimethylpyridin-4-yl)-3-isopropyl-1H-indol-5-yl)-N-(pyrrolidin-3-ylmethyl)oxazole-4-carboxamide], the figures for the IC50 against human TLR9, at human TLR8 and against human TLR7 were 1080 nM, 26 nM and 49 nM, respectively.
Consider `Cc1cc(-c2[nH]c3ccc(-c4nc(C(=O)NCC(C)CN)co4)cc3c2C(C)C)cc(C)n1` (stereo not drawn) [Example 277, N-(3-amino-2-methylpropyl)-2-(2-(2,6-dimethylpyridin-4-yl)-3-isopropyl-1H-indol-5-yl)oxazole-4-carboxamide], for which the IC50 against human TLR9 came out at 1080 nM; at human TLR8 it was 13 nM; at human TLR7 it was 21 nM.
The like results for `Cc1cc(-c2[nH]c3ccc(-c4nc(C(=O)NCCCN)co4)cc3c2C(C)C)cc(C)n1` [Example 278, N-(3-aminopropyl)-2-(2-(2,6-dimethylpyridin-4-yl)-3-isopropyl-1H-indol-5-yl)oxazole-4-carboxamide] were, in that order, 488 nM, 37 nM and 33 nM.
In the case of `CNCCCNC(=O)c1coc(-c2ccc3[nH]c(-c4cc(C)nc(C)c4)c(C(C)C)c3c2)n1` [Example 279, 2-(2-(2,6-dimethylpyridin-4-yl)-3-isopropyl-1H-indol-5-yl)-N-(3-(methylamino)propyl)oxazole-4-carboxamide], the IC50 on human TLR9 was 128 nM; at human TLR8, 8.8 nM; against human TLR7 it was 14 nM.
For the compound `Cc1cc(-c2[nH]c3ccc(-c4nc(C(=O)NCCCN(C)C)co4)cc3c2C(C)C)cc(C)n1` [Example 280, N-(3-(dimethylamino)propyl)-2-(2-(2,6-dimethylpyridin-4-yl)-3-isopropyl-1H-indol-5-yl)oxazole-4-carboxamide], the IC50 on human TLR9 came to 156 nM; on human TLR8, 1.8 nM; against human TLR7, 3.8 nM.
The like results for `Cc1cc(-c2[nH]c3ccc(-c4nc(C(=O)NCCN5CCOCC5)co4)cc3c2C(C)C)cc(C)n1` [Example 281, 2-(2-(2,6-dimethylpyridin-4-yl)-3-isopropyl-1H-indol-5-yl)-N-(2-morpholinoethyl)oxazole-4-carboxamide] were, in that order, 11200 nM, 8.7 nM and 34 nM.
Turning to `Cc1cc(-c2[nH]c3ccc(-c4nc(C(=O)N[C@H]5CC[C@H](N)CC5)co4)cc3c2C(C)C)cc(C)n1` [Example 282], the IC50 came out at 2380 nM on human TLR9, 16 nM on human TLR8 and 72 nM against human TLR7.
For the compound `CCOC(=O)N1CCC(NC(=O)c2coc(-c3ccc4[nH]c(-c5cc(C)nc(C)c5)c(C(C)C)c4c3)n2)CC1` [Example 283, ethyl 4-(2-(2-(2,6-dimethylpyridin-4-yl)-3-isopropyl-1H-indol-5-yl)oxazole-4-carboxamido)piperidine-1-carboxylate], the IC50 was determined as 2360 nM against human TLR9, 9.3 nM on human TLR8 and 147 nM at human TLR7.
Take `Cc1cc(-c2[nH]c3ccc(-c4nc(C(=O)NCCCN5CCCC5)co4)cc3c2C(C)C)cc(C)n1` [Example 284, 2-(2-(2,6-dimethylpyridin-4-yl)-3-isopropyl-1H-indol-5-yl)-N-(3-(pyrrolidin-1-yl)propyl)oxazole-4-carboxamide]: the IC50 on human TLR9 was 563 nM; against human TLR8 it was 9.6 nM; on human TLR7, 12 nM.
For the compound `Cc1cc(-c2[nH]c3ccc(-c4nc(C(=O)NCCCCN5CCCC5)co4)cc3c2C(C)C)cc(C)n1` [Example 285, 2-(2-(2,6-dimethylpyridin-4-yl)-3-isopropyl-1H-indol-5-yl)-N-(4-(pyrrolidin-1-yl)butyl)oxazole-4-carboxamide], the half-inhibitory concentration (IC50) stood at 466 nM at human TLR9, 5.6 nM against human TLR8 and 8.6 nM at human TLR7.
